Laboratory results: article PMC10970734, “Identification of an Intravenous Injectable NK1 Receptor Antagonist for Use in Traumatic Brain Injury” (International Journal of Molecular Sciences, 2024)
Values after ≈ are worked out from the molar mass of the structure shown.

Tests used:
Aqueous solubility = assay type: physicochemical; conditions: water
NK1R = NK1R (Homo sapiens, UniProt P25103); test: Radioligand binding, competition for [3H]SP, CHO cells transfected with human NK1R; set-up: expressed in transfected cells; host or cells: CHO cells (ATCC); conditions: competition for [3H]SP binding (0.6 nM)
Procedure: The affinity of EUC-001 for the human NK1R was assessed by radioligand binding assays using Chinese hamster ovary (CHO) cells transfected with the human NK1R. Radioligand binding studies, evaluating competition for [^3H]
Radioligand binding assays were performed using CHO cells (ATCC, Middlesex, UK) transfected with the human NK1R (accession number NM_001058). Assays were performed in 50 mM HEPES buffer (pH 7.4; Sigma-Aldrich, St Louis, MO, USA) containing BSA (0.04%; Sigma-Aldrich, St Louis, MO, USA), leupeptin (8 μg/mL; Sigma-Aldrich, St Louis, MO, USA), MnCl2 (3 mM; Sigma-Aldrich, St Louis, MO, USA) and phosphoramidon (2 μM; Sigma-Aldrich, St Louis, MO, USA). In total, 250 μL of membrane suspension was incubated with 125 μL of unlabelled EUC-001 (synthesized by Hoffmann-La Roche, Basel, Switzerland) dissolved in assay buffer, and 125 μL of [^3H]SP (final concentration 0.6 nM; Amersham Biosciences, Amersham, UK). Displacement curves were determined with seven concentrations of EUC-001. Following incubation (60 min at room temperature), the mixture was rapidly filtered through pre-soaked Whatman GF/C filters (Sigma-Aldrich, St Louis, MO, USA) and washed with 2 × 2 mL HEPES buffer (Sigma-Aldrich, St Louis, MO, USA), and bound radioactivity was measured by scintillation counting (Beckman Coulter, Brea, CA, USA). Assays were performed in triplicate in 2 separate experiments.

rodent model of TBI [1] = test: Cognitive function after TBI, Barnes maze; assay type: in vivo, Sprague Dawley rats; conditions: rat TBI, 10 mg/kg 30 min post-injury, 10 days
Procedure: Cognitive outcome was assessed using the Barnes maze in order to reduce the potential confounding effects that may be associated with tests such as the Morris water maze. In the Barnes maze, animals were placed under a cover in the centre of an elevated 1.2 m diameter board containing 19 holes around the periphery. One hole contained the entrance to a darkened escape tunnel that was not visible from the surface, relying on the animal to use surrounding visual cues to locate the tunnel. The time, in seconds, for the animal to locate and enter the escape tunnel was recorded. Following pre-training, the effect of injury, and post-injury treatment, on the time taken for the animal to locate the tunnel was measured (Figure 7). […]
Injury was induced in halothane-anesthetized (ProVet) male Sprague Dawley rats (400 ± 20 g) using acceleration-induced impact TBI [29, 93]. […] Blood pressure was monitored, both before and after injury, using a femoral arterial line. […]
Motor and cognitive outcomes in animals (n = 6 per group) were assessed using the rotarod and Barnes maze, respectively, as described in detail elsewhere. […] The rotational speed of the device was increased from 0 to 30 r.p.m. and the duration (in seconds) when the animals either completed the task, fell from the rods, or gripped the rods and spun for two consecutive revolutions rather than walking actively was recorded as the rotarod score. […]

rodent model of TBI [2] = test: Cerebral oedema after TBI, wet weight-dry weight method; assay type: in vivo, Sprague Dawley rats; conditions: rat TBI, 10 mg/kg 30 min post-injury, tissues 6 h post-injury
Procedure: The BBB dysfunction that follows acute CNS injuries can contribute to significant complications, such as cerebral oedema and raised intracranial pressure (ICP). The development of cerebral oedema was assessed using the wet weight–dry weight method, with tissues collected 6 h post-injury.
Injury was induced in halothane-anesthetized (ProVet) male Sprague Dawley rats (400 ± 20 g) using acceleration-induced impact TBI [29, 93]. This model involves impacting a 10 mm diameter, 3 mm thick stainless steel disc fixed centrally to the exposed skull between the lambda and bregma with an accelerating impactor. The impactor was a 450 g brass weight dropped from a height of 2 m. Earlier studies have shown that the impact acceleration injury produces diffuse axonal injury, oedema, BBB opening, Mg^2+ decline, and moderate-to-severe neurologic deficits. All animals were fed and watered ad libitum before the induction of injury. During both surgery and the immediate recovery phase, rat rectal temperature was maintained using a thermostatically controlled heating pad. […] Blood pressure was monitored, both before and after injury, using a femoral arterial line. […]
The amount of oedema development was calculated using the wet weight–dry weight method. […] Edema in each brain sample was calculated using the wet–dry method formula:%Water = (Wet Weight − Dry Weight)/Wet Weight × 100

NK1R, sequence (P25103 whole entry): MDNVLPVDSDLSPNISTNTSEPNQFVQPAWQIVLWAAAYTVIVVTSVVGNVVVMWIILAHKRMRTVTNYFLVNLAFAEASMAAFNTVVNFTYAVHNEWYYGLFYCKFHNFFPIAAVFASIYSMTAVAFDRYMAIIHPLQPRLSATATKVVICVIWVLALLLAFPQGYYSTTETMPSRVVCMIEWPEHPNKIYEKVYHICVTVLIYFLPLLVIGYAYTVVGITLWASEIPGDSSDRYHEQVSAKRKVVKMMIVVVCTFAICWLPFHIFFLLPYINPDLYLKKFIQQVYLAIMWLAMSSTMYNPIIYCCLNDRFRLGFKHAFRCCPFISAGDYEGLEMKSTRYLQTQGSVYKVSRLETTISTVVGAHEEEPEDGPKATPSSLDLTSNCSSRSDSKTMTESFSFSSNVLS

Question: Which solubility (Aqueous solubility; free base) does the source give for Cc1ccccc1-c1cc(N2CCN(C)CC2)ncc1C(=O)N(C)Cc1cc(C(F)(F)F)cc(C(F)(F)F)c1 [EUC-001, N-(3,5-Bis-trifluoromethyl-benzyl)-N-methyl-6-(4-methyl-piperazine-1-yl)-4-o-tolyl-nicotinamide] here?
Answer: 500 µg/mL (≈ 908 µM)

Question: What about the solubility (Aqueous solubility; hydrochloride salt) of the same compound?
Answer: 1500 µg/mL

Question: And the Ki (NK1R)?
Answer: 0.575 nM

Question: And the “Cognitive function, Barnes maze time to locate escape tunnel” value (rodent model of TBI [1])?
Answer: minimal impact on the performance time

Question: And the “Brain tissue water content (cerebral oedema)” value (rodent model of TBI [2])?
Answer: not significantly different from sham
